Consider 11 compounds from PubChem BioAssay AID1963836 (Molecular Pharmacology Branch, DTP, NCI, 2024).

Structures are written as SMILES. Several values for one entry are separate records, joined by “and”; a condition that tells them apart may be missing. Identical values can stand only once. A value given as a limit tells only on which side of the number the result lay.

For this test, the system named is 857933-349-R-J2-PDC complex spheroid viability. Kind of test: Anticancer human tumor 857933-349-R-J2-PDC patient-derived colon adenocarcinoma cell line growth inhibition [POLQ]. Conditions: for viability, T/C: stronger effect = lower value. The protocol:
Multicellular complex tumor spheroid response to Polymerase (POL) inhibitors (novobiocin, ART-558, RP6685) in combination with a variety of drugs and investigational agents in selected tumor cell lines
The POL inhibitors (novobiocin, ART-558, and RP6685) were evaluated both individually and in combination with standard of care and investigational anticancer small molecules within a complex spheroid model of solid tumors. . Complex spheroids include a stromal component modeled by human endothelial cells (HUVEC) and fibroblasts modeled by human mesenchymal stem cells (MSCs). The concentration ranges selected for each drug and investigational agent were based upon clinically achievable concentrations if the clinical Cmax of the agent was known.
Compounds. The drugs and investigational agents: novobiocin (NSC847541), ART-558 (NSC835418), RP-6685 (NSC848927), peposertib (NSC802822), ceralasertib (NSC780249), elimusertib (NSC800525), camonsertib (NSC841442), AZD-1390 (NSC803789), olaparib (NSC753686), talazoparib (NSC767125), rucaparib (NSC756644), sotorasib (NSC818433), MRTX-1133 (NSC836407), SN-38 (NSC673596), topotecan (NSC609699), epotoside (NSC141540), doxorubicin (NSC123127), gemcitabine (NSC613327), 5-fluorouracil (NSC19893), paclitaxel (NSC125973), vemurafenib (NSC761431), MSA-2 (NSC828583), SN-011 (NSC837082), adavosertib (NSC754352), prexasertib (NSC758257), carboplatin (NSC241240) and oxaliplatin (NSC266046), were obtained from the National Cancer Institute (NCI) Developmental Therapeutics Program Chemical Repository (21). The FDA-approved anticancer drug set is available from the Developmental Therapeutics Program at https://dtp.cancer.gov/organization/dscb/obtaining/. […] The stock solutions were prepared in dimethyl sulfoxide (DMSO, Sigma-Aldrich, St. Louis, MO, cat. D2650), except for the platinum compounds which were prepared in saline (Quality Biological, Gaithersburg, MD, cat. 114-055-101), at 800-fold the tested concentration and stored at -70 degrees C prior to their use. All drugs and investigational agents were tested over a range starting from a high concentration at or near the clinical Cmax and decreasing in half-log increments. If the clinical Cmax for an agent had not been determined, the highest concentration tested was 10 microM, except for SN-38, which was tested at a high concentration of 1 microM.
Cell Culture. All cells were maintained in an incubator at 37 degrees C and 5% CO2 with 95% humidity. The PDC lines were cultured according to standard operating procedures established by the NCI PDMR (https://pdmr.cancer.gov). Table 3 of the manuscript, lists the cell lines along with the number of the three cell types plated to form the mct-spheroids and media for tumor cell growth. After thawing, all PDC lines, except 997537-175-T-J1-PDC and 415267-285-R-J2-PDC, were cultured in Matrigel-coated flasks prepared with a working solution of 1X Ham's F-12 nutrient mix, without supplementation (Thermo Fisher Scientific, cat. 11765054), 100 U/mL penicillin-streptomycin (Thermo Fisher Scientific, cat. 15140122), and 2.5% Matrigel (Corning Inc., Corning, NY, cat. 354248) for the first three passages. The two PDC lines 997537-175-T-J1-PDC and 415267-285-R-J2-PDC were cultured on uncoated flasks. The 857933-349-R-J2-PDC line was cultured in 6C/Colon 1B media containing advanced DMEM/F-12 (Thermo Fisher Scientific, cat. 12634028), 10 mM HEPES (Thermo Fisher Scientific, cat. 15630080), 1X GlutaMAX supplement (Thermo Fisher Scientific, cat. 35050061), 0.1 mg/mL primocin (InvivoGen, San Diego, CA, cat. ant-pm-2), 10% defined fetal bovine serum, heat inactivated (HyClone Laboratories Inc., Logan, UT, cat. SH30070.03HI), 50% L-WRN conditioned media (ATCC, cat. CRL-3276), 1.25 mM N-Acetyl-L-cysteine (Sigma-Aldrich, cat. A9165), 10 mM nicotinamide (Sigma-Aldrich, cat. N0636), 1X B-27 supplement (Thermo Fisher Scientific, cat. 17504044), 1X N-2 supplement (Thermo Fisher Scientific, cat. […]

Where [1] appears, read: compound alone, run of 01/19/2024.
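Note: spheroids exposed to compounds for seven days before readout.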

With `CNCc1ccc(-c2[nH]c3cc(F)cc4c3c2CCNC4=O)cc1`, the viability, T/C (compound 0.0316 µM) was 100% and 90.4% and 94.9%; the viability, T/C (compound 0.1 µM) is 113% and 94.5% and 90.2%; the viability, T/C (compound 0.316 µM) was 112% and 94.5% and 80.8%; the viability, T/C (compound 1 µM) is 109% and 95.4% and 91.2%; the viability, T/C (compound 3.16 µM) is 108% and 106% and 89.7%; the viability, T/C (compound 10 µM) is 97.1% and 91.2% and 90%. Besides, the half-maximal inhibitory concentration (IC50) (curve of compound) was more than 10000 nM.

`COc1cc(C2c3cc4c(cc3C(OC3OC5COC(C)OC5C(O)C3O)C3COC(=O)C23)OCO4)cc(OC)c1O` (configuration not stated): the viability, T/C is 74.7% and 90.5% and 74.8% (compound 0.0316 µM); 74% and 67.4% and 84.9% (compound 0.1 µM); 51.1% and 65.9% and 54.1% (compound 0.316 µM); 60% and 59.9% and 55.7% (compound 1 µM); 38.2% and 33.4% and 32.9% (compound 3.16 µM); 24.6% and 24.7% and 27.6% (compound 10 µM). The half-maximal inhibitory concentration (IC50) (curve of compound) is 1160 nM and 1190 nM and 955 nM.

In the case of `COc1ccc([C@@H](O)c2cc(-c3ncnc4cc(N5CCOCC5)ccc34)c(F)cc2Cl)nn1`, the viability, T/C is 97.4% and 82.2% and 96.7% (compound 0.0316 µM); 85.4% and 95.2% and 123% (compound 0.1 µM); 85.5% and 99% and 89.7% (compound 0.316 µM); 102% and 100% and 95.2% (compound 1 µM); 84.8% and 82.1% and 79.2% (compound 3.16 µM); 71.6% and 58.9% and 66% (compound 10 µM). Under “curve of compound”, the concentration for half-maximal inhibition (IC50) is more than 10000 nM.

In the case of `COc1cccc(OCCCN)c1-c1cc(Nc2cnc(C#N)cn2)n[nH]1`, the viability, T/C (compound 0.00316 µM) is 91.5% and 95.9% and 86.6%; the viability, T/C (compound 0.01 µM) is 87.6% and 84.2% and 97.2%; the viability, T/C (compound 0.0316 µM) was 74.3% and 98.6% and 80.6%; the viability, T/C (compound 0.1 µM) was 51.2% and 62.8% and 75.9%; the viability, T/C (compound 0.316 µM) was 53.3% and 60.6% and 53.7%; the viability, T/C (compound 1 µM) is 38.1% and 53.8% and 48.8%. Moreover, the IC50 (curve of compound) is 189 nM and > 1000 nM and 731 nM.

For the compound `COc1cccc2c1C(=O)c1c(O)c3c(c(O)c1C2=O)CC(O)(C(=O)CO)CC3OC1CC(N)C(O)C(C)O1` (configuration not stated), the viability, T/C is, setting by setting: (compound 0.0316 µM) 74.8% and 79.1% and 66.5%; (compound 0.1 µM) 76.8% and 69% and 68.7%; (compound 0.316 µM) 43.7% and 46.9% and 49.5%; (compound 1 µM) 10.4% and 8.69% and 8.8%; (compound 3.16 µM) 0.42% and 0.45% and 0.4%; (compound 10 µM) 0.55% and 0.34% and 0.38%. Besides, under “curve of compound”, the IC50 is 259 nM and 312 nM.

In the case of `Cc1cccc(N(C)C(=O)C2C(O)CCN2c2nc(C)cc(C(F)(F)F)c2C#N)c1` (configuration not stated), where the note is “compound 0.0316 µM”, the viability, T/C is 96.2% [middle of 13 runs]. For the same compound, the IC50 (compound alone, run of 01/08/2024) was more than 10000 nM and the IC50 under setting [1] is more than 10000 nM.

`Cn1ncnc1[C@H]1c2n[nH]c(=O)c3cc(F)cc(c23)N[C@@H]1c1ccc(F)cc1`: the viability, T/C reads like this: (compound 0.000316 µM) 96.9% and 93.8% and 114%; (compound 0.001 µM) 93.6% and 90.7% and 86.2%; (compound 0.00316 µM) 105% and 103% (2×); (compound 0.01 µM) 99.3% and 97.8% and 73.1%; (compound 0.0316 µM) 85.6% and 89.2% and 103%; (compound 0.1 µM) 90.2% and 97.5% and 88.9%. Further, the IC50 (curve of compound) was more than 100 nM.

Regarding `Nc1ccc(C#CCN(C(=O)Cc2ncc(C(F)(F)F)cc2C(F)(F)F)c2ccc(F)cc2)nn1`, the viability, T/C was 97.7% [middle of 13 runs] (compound 0.0316 µM); 104% [middle of 13 runs] (compound 0.1 µM); 102% [middle of 13 runs] (compound 0.316 µM); 99.5% [middle of 13 runs] (compound 1 µM); 99.5% [middle of 13 runs] (compound 10 µM). The IC50 under setting [1] was more than 10000 nM.

Turning to `Nc1ccn(C2OC(CO)C(O)C2(F)F)c(=O)n1` (configuration not stated), the viability, T/C reads like this: (compound 0.0316 µM) 73.9% and 60.7% and 67.2%; (compound 0.1 µM) 59.8% and 43.2% and 55.4%; (compound 0.316 µM) 25.9% and 10.6% and 33.7%; (compound 1 µM) 19.8% and 9.28% and 16.4%; (compound 3.16 µM) 13% and 7.52% and 11.1%; (compound 10 µM) 10.5% and 5.88% and 9.87%. Also, the IC50 (curve of compound) was 139 nM and 63.8 nM and 134 nM.

With `O=C(c1cc(Cc2n[nH]c(=O)c3ccccc23)ccc1F)N1CCN(C(=O)C2CC2)CC1`, the viability, T/C reads like this: (compound 0.0316 µM) 110% and 84.9% and 98.6%; (compound 0.1 µM) 108% and 96.5% and 87.8%; (compound 0.316 µM) 96.2% and 105% and 95.9%; (compound 1 µM) 101% and 98.2% and 108%; (compound 3.16 µM) 94.1% and 79.9% and 110%; (compound 10 µM) 72.3% and 76.5% and 84.3%. Where the note is “curve of compound”, the half-maximal inhibitory concentration (IC50) was more than 10000 nM.

As for `O=c1[nH]cc(F)c(=O)[nH]1`, the viability, T/C is, setting by setting: (compound 0.0316 µM) 98.7% and 89.7% and 53.3%; (compound 0.1 µM) 89.1% and 112% and 86.9%; (compound 0.316 µM) 114% and 97.8% and 96%; (compound 1 µM) 72.6% and 81.3% and 59.4%; (compound 3.16 µM) 45.8% and 37.1% and 40.2%; (compound 10 µM) 28.3% and 24.9% and 21.5%. Also, under “curve of compound”, the IC50 was 2380 nM and 2250 nM and 1890 nM.
